Read-outs that look alike come from different tables or passages of the source.
Tests used:
[1] = target: human cloned 5-HT6 receptors (Homo sapiens, UniProt P50406); assay: 5-HT6R radioligand competition binding assays
postmenopausal women = settings: 120 mg/day, but not 60 mg/day; cited from earlier work

human cloned 5-HT6 receptors, sequence (P50406 whole entry): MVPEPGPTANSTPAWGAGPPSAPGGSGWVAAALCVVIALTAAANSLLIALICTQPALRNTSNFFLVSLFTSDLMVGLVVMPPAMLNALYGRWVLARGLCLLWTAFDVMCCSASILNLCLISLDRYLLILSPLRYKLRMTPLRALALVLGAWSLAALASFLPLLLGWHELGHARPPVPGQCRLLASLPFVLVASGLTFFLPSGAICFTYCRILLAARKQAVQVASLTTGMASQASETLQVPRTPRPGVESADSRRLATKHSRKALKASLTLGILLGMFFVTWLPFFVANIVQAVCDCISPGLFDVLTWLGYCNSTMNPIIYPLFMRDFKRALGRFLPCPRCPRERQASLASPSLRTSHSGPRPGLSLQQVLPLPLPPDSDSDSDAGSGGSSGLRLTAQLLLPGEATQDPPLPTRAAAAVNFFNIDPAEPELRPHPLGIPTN

Compound	Ki [1]	Ki ([1]; 5-HT6R, Table 6, unit inferred)	Risk of cognitive impairment (postmenopausal women)
CC(NCCC(c1ccccc1)c1ccccc1)c1ccccc1 (stereo not drawn) [Compound 5]	> 10 µM	> 10 µM	
O=c1cc(N2CCOCC2)oc2c(-c3ccccc3)cccc12 [Compound 7]		> 10 µM	
COc1ccccc1N1CCN(CCCCNC(=O)c2ccc3ccccc3c2)CC1 [Compound 9]	> 10 µM	> 10 µM	
O=C(c1ccc(OCCN2CCCCC2)cc1)c1c(-c2ccc(O)cc2)sc2cc(O)ccc12 [Compound 10, raloxifene]			reduced risk of cognitive impairment

Reference: paper PMC3401608 (Journal of Medicinal Chemistry, 2012)
